Data: patent publication US12653837B2, “Use of inhaled nitric oxide and oxygen for the treatment of pulmonary hypertension” (Bellerophon Pulse Technologies LLC, priority 2017, dated 2026)

How the values were obtained:
[1] = test system: symptomatic subjects with PAH; assay: Oxygen desaturation (drop in SpO2 from beginning to end of six-minute walk test), Phase 2 study IK-7001-PAH-201; type: in vivo, human
Text: (§1) This study was a Phase 2, placebo controlled, double-blind, randomized, clinical study to determine the safety, tolerability and efficacy of pulsed iNO versus placebo as add-on therapy in symptomatic subjects with PAH (IK-7001-PAH-201; NCT01457781). The primary outcome of this study was change from baseline in pulmonary vascular resistance (PVR). Secondary outcome measure included change in 6MWD, time to first clinical worsening event (TTCW), change in WHO functional class, change in Borg Dyspnea Score (BDS) and change in patient reported outcome (PRO) scores by the SF-36 short form version 2 and the Cambridge Pulmonary Hypertension Outcome Review (CAMPHOR).
(§2) PAH subjects were administered pulsed iNO at a dose of 25 or 75 mcg/IBW kg/hr for up to 24 hours a day for up to 16 weeks, or received pulsed placebo (99.999% N2) for up to 24 hours a day for up to 16 weeks. The dose of 25 mcg/kg IBW/hr was administered from a mini-cylinder having 2,440 ppm NO and the dose of 75 mcg/kg IBW/hr was administered from a mini-cylinder having 4,880 ppm NO.
(§3) All subjects were receiving at least one approved PAH therapy and were clinically symptomatic from PAH (e.g. onset or increased dyspnea on exertion, dizziness, near-syncope, syncope, chest pain or peripheral edema).
Oxygen desaturation was measured as the drop in SpO2 level from the beginning to the end of the six-minute walk test (6MWT). Oxygen desaturation was measured at baseline and after 16 weeks of chronic treatment with iNO at a dose of 75 mcg/kg IBW/hr (iNO 75) or 25 mcg/kg IBW/hr (iNO 25) or placebo.

[2] = test system: symptomatic subjects with PAH; assay: Exercise capacity (change in 6MWD from baseline to 16 weeks), Phase 2 study IK-7001-PAH-201; type: in vivo, human
Text: as §1, §2, §3
Also shown is the change in exercise capacity, measured as the change in 6MWD from baseline to 16 weeks.

[N]=O [iNO, nitric oxide]
Change in Oxygen Desaturation (SpO2) ([1]; iNO 25 mcg/kg IBW/hr, pulsed, up to 24 h/day, baseline to 16 weeks (LOCF), PAH subjects): −0.14
Change in Oxygen Desaturation (SpO2) ([1]; iNO 75 mcg/kg IBW/hr, pulsed, up to 24 h/day, baseline to 16 weeks (LOCF), all PAH subjects): −2.19
Change in Oxygen Desaturation (SpO2) ([1]; iNO 75 mcg/kg IBW/hr, No LTOT, baseline to 16 weeks, PAH subjects): 0.40
Change in Oxygen Desaturation (SpO2) ([1]; iNO 75 mcg/kg IBW/hr, compliant >12 hrs per day, No LTOT, baseline to 16 weeks, PAH subjects): 1.33
Change in Oxygen Desaturation (SpO2) ([1]; iNO 75 mcg/kg IBW/hr, compliant >12 hrs per day, with LTOT, baseline to 16 weeks, PAH subjects): −3.36
Change in Oxygen Desaturation (SpO2) ([1]; iNO 75 mcg/kg IBW/hr, with LTOT, baseline to 16 weeks, PAH subjects): −3.00
Change in 6MWD (meters) ([2]; iNO 25 mcg/kg IBW/hr, pulsed, up to 24 h/day, PAH subjects): 4.7 meters
Change in 6MWD (meters) ([2]; iNO 75 mcg/kg IBW/hr, No LTOT, PAH subjects): −20.8 meters
Change in 6MWD (meters) ([2]; iNO 75 mcg/kg IBW/hr, compliant >12 hrs per day, No LTOT, PAH subjects): −29.7 meters
Change in 6MWD (meters) ([2]; iNO 75 mcg/kg IBW/hr, compliant >12 hrs per day, with LTOT, PAH subjects): 52.4 meters
Change in 6MWD (meters) ([2]; iNO 75 mcg/kg IBW/hr, pulsed, up to 24 h/day, all PAH subjects): 22.8 meters
Change in 6MWD (meters) ([2]; iNO 75 mcg/kg IBW/hr, with LTOT, PAH subjects): 34.9 meters
